The record followed here is patent US7368421B2, “Use of dipeptidyl peptidase IV inhibitors in the treatment of multiple sclerosis” (Probiodrug AG, priority 2001, dated 2008).

In the assay the target is purified porcine DP IV (Sus scrofa, UniProt P22411). The assay can be described thus: Determination of IC50 values, DP IV. To be noted: Gly-Pro-pNA 0.4 mM, HEPES pH 7.6, 30° C. In kind it is biochemical. As for the experimental part:
100 μl inhibitor stock solution were mixed with 100 μl buffer (HEPES pH7.6) and 50 μl substrate (Gly-Pro-pNA, final concentration 0.4 mM) and preincubated at 30° C. Reaction was started by addition of 20 μl purified porcine DP IV. Formation of the product pNA was measured at 405 nm over 10 min using the HTS 7000Plus plate reader (Perkin Elmer) and slopes were calculated. The final inhibitor concentrations ranged between 1 mM and 30 nM. For calculation of IC50 GraFit 4.0.13 (Erithacus Software) was used.

The structures appear in SMILES notation.

Sequence of purified porcine DP IV (P22411 whole entry): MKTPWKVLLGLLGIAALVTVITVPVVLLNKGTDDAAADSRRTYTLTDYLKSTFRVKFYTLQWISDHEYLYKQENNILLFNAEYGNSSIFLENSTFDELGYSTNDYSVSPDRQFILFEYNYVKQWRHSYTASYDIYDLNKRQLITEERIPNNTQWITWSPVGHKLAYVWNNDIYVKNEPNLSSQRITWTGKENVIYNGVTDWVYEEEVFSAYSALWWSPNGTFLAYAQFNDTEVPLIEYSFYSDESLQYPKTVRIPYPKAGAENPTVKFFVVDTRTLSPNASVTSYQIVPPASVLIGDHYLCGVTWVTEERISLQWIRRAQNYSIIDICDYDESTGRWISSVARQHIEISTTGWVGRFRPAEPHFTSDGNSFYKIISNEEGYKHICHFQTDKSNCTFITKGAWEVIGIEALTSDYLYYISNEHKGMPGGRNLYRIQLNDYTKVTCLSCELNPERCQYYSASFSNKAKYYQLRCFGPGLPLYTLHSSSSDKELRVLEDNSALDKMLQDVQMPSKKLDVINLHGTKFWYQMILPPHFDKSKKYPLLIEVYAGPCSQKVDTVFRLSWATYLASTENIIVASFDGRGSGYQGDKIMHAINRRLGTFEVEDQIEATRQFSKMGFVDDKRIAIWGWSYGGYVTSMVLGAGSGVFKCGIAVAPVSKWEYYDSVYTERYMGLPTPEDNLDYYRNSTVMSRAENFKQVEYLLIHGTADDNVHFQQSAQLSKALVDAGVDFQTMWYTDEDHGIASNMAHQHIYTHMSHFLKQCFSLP

The compound `NC(=O)CCC(N)C(=O)N1CCSC1` (stereo not shown) [Gln-Thia, glutaminyl thiazolidine] yielded a concentration for half-maximal inhibition (IC50) of 5.27 µM.

As a reminder, the IC50 is the point on the concentration scale where inhibition reaches its midpoint. High values mean a need for much substance, low ones inhibition by little substance.
